# Data from US12371436B2, “Substituted benzodiazoliums as ENaC inhibitors” (ENTERPRISE THERAPEUTICS LIMITED, priority 2016, dated 2025).
# Structures can show the parent of a compound that is named as a salt.
# Target: T1, ENaC (Homo sapiens, UniProt P37088+P51168+P51170)
# T1 construct: host or cells: primary human bronchial epithelial cells (HBECs) differentiated at air-liquid interface
# T1 sequence (P37088 1-669): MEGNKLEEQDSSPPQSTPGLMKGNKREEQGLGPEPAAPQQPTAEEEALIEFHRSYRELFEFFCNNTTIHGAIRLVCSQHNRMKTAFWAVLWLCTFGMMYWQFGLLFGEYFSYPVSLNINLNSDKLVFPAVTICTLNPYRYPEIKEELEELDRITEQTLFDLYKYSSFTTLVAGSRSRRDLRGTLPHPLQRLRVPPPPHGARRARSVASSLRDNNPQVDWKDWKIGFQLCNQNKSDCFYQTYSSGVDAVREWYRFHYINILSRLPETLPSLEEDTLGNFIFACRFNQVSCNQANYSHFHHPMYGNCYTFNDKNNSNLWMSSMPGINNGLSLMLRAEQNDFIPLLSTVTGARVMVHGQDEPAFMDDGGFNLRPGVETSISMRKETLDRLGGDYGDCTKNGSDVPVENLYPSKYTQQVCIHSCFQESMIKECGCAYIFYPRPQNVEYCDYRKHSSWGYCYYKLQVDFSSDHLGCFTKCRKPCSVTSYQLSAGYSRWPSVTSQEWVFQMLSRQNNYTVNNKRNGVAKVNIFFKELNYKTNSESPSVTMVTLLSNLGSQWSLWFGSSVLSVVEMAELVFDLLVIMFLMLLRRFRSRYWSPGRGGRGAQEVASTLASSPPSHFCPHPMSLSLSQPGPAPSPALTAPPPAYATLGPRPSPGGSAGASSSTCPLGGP
# T1 sequence (P51168 1-640): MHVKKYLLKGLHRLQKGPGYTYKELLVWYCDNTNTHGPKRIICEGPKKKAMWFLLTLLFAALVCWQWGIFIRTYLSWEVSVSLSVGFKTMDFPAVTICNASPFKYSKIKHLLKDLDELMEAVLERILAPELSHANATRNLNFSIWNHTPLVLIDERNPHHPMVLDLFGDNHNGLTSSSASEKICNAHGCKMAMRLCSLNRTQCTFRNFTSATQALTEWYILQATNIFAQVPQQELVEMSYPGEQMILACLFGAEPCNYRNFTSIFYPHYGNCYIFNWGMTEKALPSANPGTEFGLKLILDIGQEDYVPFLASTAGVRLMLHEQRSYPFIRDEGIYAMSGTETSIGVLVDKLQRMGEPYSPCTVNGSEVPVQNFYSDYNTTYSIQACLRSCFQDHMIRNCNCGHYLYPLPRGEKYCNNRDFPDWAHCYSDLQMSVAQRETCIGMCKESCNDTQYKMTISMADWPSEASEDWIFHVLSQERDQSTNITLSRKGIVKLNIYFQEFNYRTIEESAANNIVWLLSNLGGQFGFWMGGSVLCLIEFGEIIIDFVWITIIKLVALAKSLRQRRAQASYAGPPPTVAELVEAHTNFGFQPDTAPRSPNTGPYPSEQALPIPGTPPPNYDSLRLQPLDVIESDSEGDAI
# T1 sequence (P51170 1-649): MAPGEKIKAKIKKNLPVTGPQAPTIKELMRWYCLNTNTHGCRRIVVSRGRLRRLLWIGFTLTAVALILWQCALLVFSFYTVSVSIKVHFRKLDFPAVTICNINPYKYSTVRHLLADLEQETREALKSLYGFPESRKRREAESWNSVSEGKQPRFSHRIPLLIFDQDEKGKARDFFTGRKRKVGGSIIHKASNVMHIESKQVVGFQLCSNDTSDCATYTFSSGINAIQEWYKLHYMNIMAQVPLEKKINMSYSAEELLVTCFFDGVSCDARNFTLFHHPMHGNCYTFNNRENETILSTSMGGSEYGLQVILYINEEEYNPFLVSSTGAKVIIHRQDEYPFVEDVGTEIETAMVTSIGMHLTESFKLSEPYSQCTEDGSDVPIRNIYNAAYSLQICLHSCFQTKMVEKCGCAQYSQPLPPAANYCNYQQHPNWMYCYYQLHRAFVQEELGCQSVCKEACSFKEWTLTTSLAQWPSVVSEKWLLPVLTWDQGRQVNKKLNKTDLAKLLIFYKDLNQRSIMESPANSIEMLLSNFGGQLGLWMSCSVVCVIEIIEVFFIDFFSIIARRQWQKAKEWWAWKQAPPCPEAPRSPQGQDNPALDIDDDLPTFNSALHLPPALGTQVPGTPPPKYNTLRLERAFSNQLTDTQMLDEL
# Experiment: Short circuit current assay to determine ENaC blocker potency in human bronchial epithelial cells
# Type: cell-based
# Settings: 50% inhibition of total amiloride-sensitive ISC, apical addition, read-out: Averages.ENaC IC50 (nM) Avg
# How it was run: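 Primary human bronchial epithelial cells at air-liquid interface (days 14–21) were voltage-clamped at 0 mV in Ussing chambers (Ringer, pH 7.4, 37° C.). Compounds were added apically as cumulative concentrations, then 10 μM amiloride. IC50 was taken as 50% inhibition of amiloride-sensitive ISC.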
row,Structure (SMILES),IC50
1,"CCn1c(CNC(=O)c2nc3cc[nH]c3nc2N)[n+](CC)c2ccc(C3CCN(C[C@H](O)[C@@H](O)[C@H](O)[C@H](O)CO)CC3)cc21 [Example 46, 2-[({3-amino-5H-pyrrolo[2,3-b]pyrazin-2-yl}formamido)methyl]-1,3-diethyl-6-{1-[(2S,3R,4R,5R)-2,3,4,5,6-pentahydroxyhexyl]piperidin-4-yl}-1H-1,3-benzodiazol-3-ium]",8 nM
2,"CCn1c(CNC(=O)c2nc3cc[nH]c3nc2N)[n+](CC)c2ccc(-c3cnn(C4CCN(C[C@H](O)[C@@H](O)[C@H](O)[C@H](O)CO)CC4)c3)cc21 [Example 47, 2-[({3-amino-5H-pyrrolo[2,3-b]pyrazin-2-yl}formamido)methyl]-1,3-diethyl-6-(1-{1-[(2S,3R,4R,5R)-2,3,4,5,6-pentahydroxyhexyl]piperidin-4-yl}-1H-pyrazol-4-yl)-1H-1,3-benzodiazol-3-ium]",5 nM
3,"CCn1c(CNC(=O)c2nc3cc[nH]c3nc2N)[n+](CC)c2ccc(C(=O)NCCCN(C[C@H](O)[C@@H](O)[C@H](O)[C@H](O)CO)C[C@H](O)[C@@H](O)[C@H](O)[C@H](O)CO)cc21 [Example 48, 2-[({3-amino-5H-pyrrolo[2,3-b]pyrazin-2-yl}formamido)methyl]-6-[(3-{bis[(2S,3R,4R,5R)-2,3,4,5,6-pentahydroxyhexyl]amino}propyl)carbamoyl]-1,3-diethyl-1H-1,3-benzodiazol-3-ium]",18 nM
4,"CCn1c(CNC(=O)c2nc3cc[nH]c3nc2N)[n+](CC)c2ccc(C(=O)NC3CCN(C[C@H](O)[C@@H](O)[C@H](O)[C@H](O)CO)CC3)cc21 [Example 49, 2-[({3-amino-5H-pyrrolo[2,3-b]pyrazin-2-yl}formamido)methyl]-1,3-diethyl-6-({1-[(2S,3R,4R,5R)-2,3,4,5,6-pentahydroxyhexyl]piperidin-4-yl}carbamoyl)-1H-1,3-benzodiazol-3-ium]",7 nM
5,"CCn1c(CNC(=O)c2nc3cc[nH]c3nc2N)[n+](CC)c2ccc(C(=O)N3CCC(N(C[C@H](O)[C@@H](O)[C@H](O)[C@H](O)CO)C[C@H](O)[C@@H](O)[C@H](O)[C@H](O)CO)CC3)cc21 [Example 50, 2-[({3-amino-5H-pyrrolo[2,3-b]pyrazin-2-yl}formamido)methyl]-6-(4-{bis[(2S,3R,4R,5R)-2,3,4,5,6-pentahydroxyhexyl]amino}piperidine-1-carbonyl)-1,3-diethyl-1H-1,3-benzodiazol-3-ium]",35 nM
6,"CCn1c(CNC(=O)c2nc3cc[nH]c3nc2N)[n+](CC)c2ccc(C(=O)NCCN3CCC(N(C[C@H](O)[C@@H](O)[C@H](O)[C@H](O)CO)C[C@H](O)[C@@H](O)[C@H](O)[C@H](O)CO)CC3)cc21 [Example 51, 2-[({3-amino-5H-pyrrolo[2,3-b]pyrazin-2-yl}formamido)methyl]-6-{[2-(4-{bis[(2S,3R,4R,5R)-2,3,4,5,6-pentahydroxyhexyl]amino}piperidin-1-yl)ethyl]carbamoyl}-1,3-diethyl-1H-1,3-benzodiazol-3-ium]",38 nM
7,"CCn1c(CNC(=O)c2nc3cc[nH]c3nc2N)[n+](CC)c2ccc(C(=O)N3CCC(CN(C[C@H](O)[C@@H](O)[C@H](O)[C@H](O)CO)C[C@H](O)[C@@H](O)[C@H](O)[C@H](O)CO)CC3)cc21 [Example 52, 2-[({3-amino-5H-pyrrolo[2,3-b]pyrazin-2-yl}formamido)methyl]-5-[4-({bis[(2S,3R,4R,5R)-2,3,4,5,6-pentahydroxyhexyl]amino}methyl)piperidine-1-carbonyl]-1,3-diethyl-1H-1,3-benzodiazol-3-ium]",69 nM
8,"CCn1c(CNC(=O)c2nc3cc[nH]c3nc2N)[n+](CC)c2ccc(C(=O)N3CC[C@@H](N(C[C@H](O)[C@@H](O)[C@H](O)[C@H](O)CO)C[C@H](O)[C@@H](O)[C@H](O)[C@H](O)CO)C3)cc21 [Example 53, 2-[({3-amino-5H-pyrrolo[2,3-b]pyrazin-2-yl}formamido)methyl]-6-[(3R)-3-{bis[(2S,3R,4R,5R)-2,3,4,5,6-pentahydroxyhexyl]amino}pyrrolidine-1-carbonyl]-1,3-diethyl-1H-1,3-benzodiazol-3-ium]",202 nM
9,"CCn1c(CNC(=O)c2nc3c(Cl)c[nH]c3nc2N)[n+](CC)c2ccc(C(=O)O)cc21 [Example 63, 2-[({3-amino-7-chloro-5H-pyrrolo[2,3-b]pyrazin-2-yl}formamido)methyl]-6-carboxy-1,3-diethyl-1H-1,3-benzodiazol-3-ium]",133 nM
10,"CCn1c(CNC(=O)c2nc3c(Br)c[nH]c3nc2N)[n+](CC)c2ccc(C(=O)O)cc21 [Example 64, 2-[({3-amino-7-bromo-5H-pyrrolo[2,3-b]pyrazin-2-yl}formamido)methyl]-6-carboxy-1,3-diethyl-1H-1,3-benzodiazol-3-ium]",244 nM
11,"CCn1c(CNC(=O)c2nc3c(Cl)c[nH]c3nc2N)[n+](CC)c2ccc(C(=O)N3CCC(N(C[C@H](O)[C@@H](O)[C@H](O)[C@H](O)CO)C[C@H](O)[C@@H](O)[C@H](O)[C@H](O)CO)CC3)cc21 [Example 65, 2-[({3-amino-7-chloro-5H-pyrrolo[2,3-b]pyrazin-2-yl}formamido)methyl]-6-(4-{bis[(2S,3R,4R,5R)-2,3,4,5,6-pentahydroxyhexyl]amino}piperidine-1-carbonyl)-1,3-diethyl-1H-1,3-benzodiazol-3-ium]",49 nM
12,"CCn1c(CNC(=O)c2nc3c(Br)c[nH]c3nc2N)[n+](CC)c2ccc(C(=O)N3CCC(N(C[C@H](O)[C@@H](O)[C@H](O)[C@H](O)CO)C[C@H](O)[C@@H](O)[C@H](O)[C@H](O)CO)CC3)cc21 [Example 66, 2-[({3-amino-7-bromo-5H-pyrrolo[2,3-b]pyrazin-2-yl}formamido)methyl]-6-(4-{bis[(2S,3R,4R,5R)-2,3,4,5,6-pentahydroxyhexyl]amino}piperidine-1-carbonyl)-1,3-diethyl-1H-1,3-benzodiazol-3-ium]",199 nM
13,"CCn1c(CNC(=O)c2nc3c(C#N)c[nH]c3nc2N)[n+](CC)c2ccc(OC)cc21 [Example 67, 2-[({3-amino-7-cyano-5H-pyrrolo[2,3-b]pyrazin-2-yl}formamido)methyl]-1,3-diethyl-6-methoxy-1H-1,3-benzodiazol-3-ium formate]",54 nM

# Test system: not listed separately
# Experiment: Bronchoalveolar lavage (BAL) procedure: compound levels after intratracheal administration
# Type: in vivo
# Settings: bronchoalveolar lavage fluid (BAL), other: intratracheal, 0.1 mg/kg, rat, 0.1 mg/mL solution in 5% dextrose, 1 mL/Kg, BAL 6 hours after administration, LC/MS/MS
# Protocol: Example 69—Bronchoalveolar Lavage (BAL) Procedure A 0.1 mg/mL solution of ENaC inhibitor in 5% dextrose was administered intratracheally to a rat weighing 225-250 g. A volume of 1 mL/Kg was used. After 6 hours, lungs were lavaged with 3×4 mL of sterile saline. A 1 mL aliquot was subsequently snap frozen. Lungs were excised, weighed and snap frozen. Compound levels in the BAL and lung tissue were subsequently determined using LC/MS/MS bioanalysis.
row,Structure (SMILES),concentration at 6 h
1,"CCn1c(CNC(=O)c2nc3cc[nH]c3nc2N)[n+](CC)c2ccc(C(=O)N3CCC(N(C[C@H](O)[C@@H](O)[C@H](O)[C@H](O)CO)C[C@H](O)[C@@H](O)[C@H](O)[C@H](O)CO)CC3)cc21 [Example 50, 2-[({3-amino-5H-pyrrolo[2,3-b]pyrazin-2-yl}formamido)methyl]-6-(4-{bis[(2S,3R,4R,5R)-2,3,4,5,6-pentahydroxyhexyl]amino}piperidine-1-carbonyl)-1,3-diethyl-1H-1,3-benzodiazol-3-ium]",260 ng/mL
2,"CCn1c(CNC(=O)c2nc3cc[nH]c3nc2N)[n+](CC)c2ccc(C(=O)N3CCC(CN(C[C@H](O)[C@@H](O)[C@H](O)[C@H](O)CO)C[C@H](O)[C@@H](O)[C@H](O)[C@H](O)CO)CC3)cc21 [Example 52, 2-[({3-amino-5H-pyrrolo[2,3-b]pyrazin-2-yl}formamido)methyl]-5-[4-({bis[(2S,3R,4R,5R)-2,3,4,5,6-pentahydroxyhexyl]amino}methyl)piperidine-1-carbonyl]-1,3-diethyl-1H-1,3-benzodiazol-3-ium]",302 ng/mL
